{
  "source": "patent US7217681B2",
  "about": "“Pesticidal composition and method for fungal control” (Syngenta Crop Protection, Inc., priority 2004, dated 2007)",
  "origin": "cited, not measured here",
  "tested_on": "fungi",
  "conditions": "reported by Burg et al., Ivermectin and Abamectin, 1989",
  "data": [
    {"substance": "abamectin", "values": [
      {"measurement": "anti-bacterial or antifungal activity", "value": "no anti-bacterial or antifungal activity"}
    ]}
  ]
}
